Results published in patent US6365759B1, “Intermediate compounds for preparing macrocylcic analogs” (Eisai Co., Ltd., priority 1998, dated 2002).
Like-named read-outs stand apart in the source and are kept apart here.

Columns and labels:
[1] = tested on: LOX human melanoma tumor xenograft; assay: LOX melanoma xenograft growth inhibition assay; format: in vivo, mouse; settings: FIG. 3
Procedure: FIG. 3 is a graph showing the average tumor volume in microliters as a function of time (days) in a LOX melanoma xenograft growth inhibition assay. […] Paclitaxel and a vehicle control were used.
Many of the individually disclosed drugs were tested for in vitro and in vivo activity (see Table 1, below). Screening methods included a standard in vitro cell growth inhibition assay using DLD-1 human colon cancer cells (ATCC accession number CCL 221) in a 96-well microtiter plate format (Finlay, G. J. et al Analytical Biochemistry 139:272-277, 1984), a U937 (ATCC accession number CRL 1593) mitotic block reversibility assay (described below), and in some cases, a LOX human melanoma tumor xenograft in vivo growth inhibition assay (see Table 1). Chemical stability to esterase degradation was also examined.

[2] = tested on: DLD-1 human colon cancer cells; assay: in vitro cell growth inhibition assay using DLD-1 cells; format: cell-based
[3] = tested on: U937 human histiocytic lymphoma cells; assay: U937 Mitotic Block Reversibility Assay; format: cell-based
[4] = Homo sapiens, DLD-1, read-out: DLD-1 mean IC50

Row | Compound | Complete Mitotic Block 0 hour [3] [nM] | Complete Mitotic Block 10 hour [3] [nM] | Reversibility Ratio [3] | IC50 ([2]; read-out: DLD-1 mean IC50) [nM] | also measured
1 | C=C1CC2CCC34CC5OC6C(O3)C3OC(CCC3O[C@H]6C5O4)CC(=O)CC3C(CC4OC(CCC1O2)CC(C)C4=C)OC(CC(O)CN)C3OC (some centres unmarked) [Compound B1939] | 12 | 12 | 1.0 | – | antitumor activity (average tumor volume over time) [1]: antitumor activity; IC50 [2, 4]: 19.3 nM; minimum concentration required for complete mitotic block at 0 hour [3]: 10 nM; minimum concentration required for complete mitotic block at 10 hour [3]: 10 nM; reversibility ratio [3]: 1; viability of cells at 5 days [3]: drops to very low levels
2 | C=C1CC2CCC34CC5OC6C(OC7CCC(CC(=O)CC8C(CC9OC(CCC1O2)CC(C)C9=C)OC(CC(O)Cn1ccnc1)C8OC)OC7C6O3)C5O4 (centres unmarked) [ER803870] | 3 | 30 | 10.0 | 1.27 | –
3 | C=C1CC2CCC34CC5OC6C(OC7CCC(CC(=O)CC8C(CC9OC(CCC1O2)CC(C)C9=C)OC(CC(O)CN1CCCC1)C8OC)OC7C6O3)C5O4 (centres unmarked) [ER803835] | 10 | 10 | 1.0 | 15.3 | –
4 | C=C1CC2CCC34CC5OC6C(OC7CCC(CC(=O)CC8C(CC9OC(CCC1O2)CC(C)C9=C)OC(CC(O)CN(CCO)CCO)C8OC)OC7C6O3)C5O4 (centres unmarked) [Compound B2489] | 10 | 10 | 1.0 | 14.7 | –
5 | C=C1CC2CCC34CC5OC6C(OC7CCC(CC(=O)CC8C(CC9OC(CCC1O2)CC(C)C9=C)OC(CC(O)CN1CCNCC1)C8OC)OC7C6O3)C5O4 (centres unmarked) [Compound B2418] | 10 | 10 | 1.0 | 3.63 | –
6 | C=C1CC2CCC34CC5OC6C(OC7CCC(CC(=O)CC8C(CC9OC(CCC1O2)CC(C)C9=C)OC(CC(O)CNCc1ccc(OC)cc1)C8OC)OC7C6O3)C5O4 (centres unmarked) [ER803845] | 3 | 10 | 3.3 | 1.5 | –
7 | C=C1CC2CCC34CC5OC6C(OC7CCC(CC(=O)CC8C(CC9OC(CCC1O2)CC(C)C9=C)OC(CC(O)CNC(CO)CO)C8OC)OC7C6O3)C5O4 (centres unmarked) [Compound B2490] | 100 | 100 | 1.0 | 35.7 | –
8 | C=C1CC2CCC34CC5OC6C(OC7CCC(CC(=O)CC8C(CC9OC(CCC1O2)CC(C)C9=C)OC(CC(O)CN1CCC[C@H]1CO)C8OC)OC7C6O3)C5O4 (some centres unmarked) [ER803851] | 3 | 3 | 1.0 | 3.33 | –
9 | C=C1CC2CCC34CC5OC6C(OC7CCC(CC(=O)C[C@H]8C(CC9OC(CCC1O2)CC(C)C9=C)OC(CC(O)CO)C8OC)OC7C6O3)C5O4 (some centres unmarked) [Compound B1793] | – | – | 14.7 | – | IC50 ([2]; in vitro cell growth inhibition, DLD-1 human colon cancer cells, read-out: DLD-1 mean IC50): 0.93 nM; Complete Mitotic Block 10 hour ([3]; after washout, 12 h pretreatment, U937 cells): 44 nM; Complete Mitotic Block 0 hour ([3]; before washout, 12 h pretreatment, U937 cells): 3 nM
10 | C=C1CC2CCC34CC5OC6C(OC7CCC(CC(=O)CC8C(CC9OC(CCC1O2)CC(C)C9=C)OC(C(O)CN)C8C)OC7C6O3)C5O4 (centres unmarked) [Compound B2136] | 3 | 3 | 1.0 | – | IC50 [2, 4]: 5.23 nM
11 | C=C1CC2CCC34CC5OC6C(OC7CCC(CC(=O)CC8C(CC9OC(CCC1O2)CC(C)C9=C)OC(CC(O)CNCC)C8OC)OC7C6O3)C5O4 (centres unmarked) [ER803869] | 3 | 3 | 1.0 | 4.13 | –
12 | C=C1CC2CCC34CC5OC6C(OC7CCC(CC(=O)CC8C(CC9OC(CCC1O2)CC(C)C9=C)OC(CC(O)CN1CCCCCC1)C8OC)OC7C6O3)C5O4 (centres unmarked) [ER803843] | 1 | 10 | 10.0 | 0.49 | –
13 | C=C1CC2CCC34CC5OC6C(OC7CCC(CC(=O)CC8C(CC9OC(CCC1O2)CC(C)C9=C)OC(CC(O)CN(CC)CC)C8OC)OC7C6O3)C5O4 (centres unmarked) [ER803883] | 1 | 10 | 10.0 | 1.02 | –
14 | C=C1CC2CCC34CC5OC6C(OC7CCC(CC(=O)CC8C(CC9OC(CCC1O2)CC(C)C9=C)OC(CC(O)CN1CCCCC1)C8OC)OC7C6O3)C5O4 (centres unmarked) [ER803834] | 1 | 10 | 10.0 | 0.47 | –
15 | C=C1CC2CCC34CC5OC6C(OC7CCC(CC(=O)CC8C(CC9OC(CCC1O2)CC(C)C9=C)OC(CC(O)CNC(C)(C)C)C8OC)OC7C6O3)C5O4 (centres unmarked) [Compound B2339] | 3 | 3 | 1.0 | 4.3 | –
